Earlier results, collected in patent publication US20210319872A1, “DRUG AND DEVICE COMBINATION PRODUCTS WITH IMPROVED SAFETY AND EFFICACY PROFILES” (priority 2016, published 2021).
Read-outs that look alike come from different tables or passages of the source.

[1] = chronic hepatitis C-associated thrombocytopenia
[2] = chronic idiopathic thrombocytopenic purpura

## CCOC(=O)C1=C(COCCN)NC(C)=C(C(=O)OC)C1c1ccccc1Cl (stereo not drawn) [Amlodipine (Norvasc, Lotrel)]
In vivo
  Abdominal pain: Gastrointestinal: Abdominal pain (1.6%), Nausea (2.9%.)
  Dizziness: Neurologic: Dizziness (Up to 3.4%), Headache (7.3%),
  Fatigue: Other: Fatigue (4.5%)
  Flushing: Cardiovascular: Flushing (0.7% to 2.6%), Palpitations (Up to
  Headache: Neurologic: Dizziness (Up to 3.4%), Headache (7.3%),
  Nausea: Gastrointestinal: Abdominal pain (1.6%), Nausea (2.9%.)
  Palpitations: ≤ 4.5%), Peripheral edema (Up to 10.8%)
  Peripheral edema: ≤ 4.5%), Peripheral edema (Up to 10.8%)
  Somnolence: Somnolence (1.4%)

## C[C@H](CS)C(=O)N1CCC[C@H]1C(=O)O [Captopril (Capoten)]
In vivo
  Agranulocytosis: Hematologic: Agranulocytosis (0.1% to 0.2%), Neutropenia (0.1%
  Angioedema: Other: Angioedema (0.1%)
  Cough: Respiratory: Cough (0.5% to 2%)
  Hyperkalemia: Endocrine metabolic: Hyperkalemia (11%)
  Neutropenia: Hematologic: Agranulocytosis (0.1% to 0.2%), Neutropenia (0.1%

## CCC(=O)C(CC(C)N(C)C)(c1ccccc1)c1ccccc1 (stereo not drawn) [Methadone]
In vivo
  Common side effect, Cardiovascular: Cardiovascular: Hypotension
  Common side effect, Endocrine metabolic: Endocrine metabolic: Diaphoresis
  Common side effect, Gastrointestinal: Gastrointestinal: Constipation, Nausea, Vomiting
  Common side effect, Neurologic: Neurologic: Asthenia, Dizziness, Lightheadedness, Sedated
  Serious side effect, Endocrine metabolic: Endocrine metabolic: Hypoglycemia
  Serious side effect, Other: Other: Drug dependence
  Serious side effect, Respiratory: Respiratory: Respiratory acidosis, Respiratory arrest, Respiratory

## CC1=NN(c2ccc(C)c(C)c2)C(=O)/C1=N\Nc1cccc(-c2cccc(C(=O)O)c2)c1O [Promacta]
Adult
  AST/SGOT level raised: 4%
Chronic hepatitis C-associated thrombocytopenia and aplastic anemia
  Headache: thrombocytopenia and aplastic anemia, 21%; chronic idiopathic
Aplastic anemia
  Cough: Respiratory: Cough (Aplastic anemia, 23%; chronic ITP, pediatric,
  Diarrhea: 21%
  Fever: 14%
  Nausea: 33%), Pain in throat (Chronic idiopathic thrombocytopenic
  Pain in throat: 14%
Chronic ITP, pediatric
  ALT/SGPT level raised: 6%
  Cough: 9%
[1]
  Anemia: thrombocytopenia, 40%)
  Diarrhea: thrombocytopenia, 19%; chronic idiopathic thrombocytopenic
  Fever: 30%
  Liver failure: associated thrombocytopenia, 7%), Liver function tests abnormal
  Nausea: (Chronic hepatitis C-associated thrombocytopenia, 19%; chronic
  Portal vein thrombosis: C-associated thrombocytopenia, 1%), Thrombosis (chronic
  Thrombosis: hepatitis C-associated thrombocytopenia, 3%)
[2]
  Fatigue: purpura, 4%), Fever (Chronic hepatitis C-associated
  Headache: thrombocytopenic purpura, 10%)
  Pain in throat: 4%
Chronic idiopathic thrombocytopenic purpura, adults
  Diarrhea: 9%
Chronic idiopathic thrombocytopenic purpura, pediatric
  Diarrhea: 5%
In vivo
  Epistaxis: 13%
  Liver function tests abnormal: (11%)
  Pharyngitis: 4%
  Urinary tract infectious disease: Renal: Urinary tract infectious disease (5%)
  Vomiting: Vomiting (6%)
Listed without frequency
  Serious side effect, Hematologic: Hematologic: Bleeding, Portal vein thrombosis (chronic hepatitis
  Serious side effect, Hepatic: Hepatic: Hepatotoxicity, Liver failure (chronic hepatitis C-
  Serious side effect, Renal: Renal: Acute renal failure
pediatric
  AST/SGOT level raised: 5%
